Experimental data from patent US11345912B2, “Directed evolution of multivalent glycopeptides that tightly bind to target proteins” (Brandeis University, priority 2013, dated 2022).

Tested on: 2G12
Assay: Binding curve and KD determination of 2G12-glycopeptide interaction (radiolabeled glycopeptide, protein G magnetic bead capture, scintillation counting)
Procedure: The resulting mRNAs were purified by denaturing PAGE or MEGAclear kit (Ambion), and 1 μM RNA was used in PURE system translation (reaction volume of translation varied). Typically, 25 μL of translated reaction was diluted with 100 μL of binding buffer (50 mM Tris-HCl, pH 7.8, 300 mM NaCl, 5 mM β-mercaptoethanol) and 25 μL of Ni-NTA agarose suspension (Qiagen), and tumbled at room temperature for 1 h. The resins were transferred to 0.22 μm spin-filter rinsing with 100 μL of bind buffer, and washed with 3×200 μL of bind buffer and 2×200 μL of wash buffer (50 mM Tris-HCl, pH 7.8, 5 mM β-mercaptoethanol). The bound peptides were eluted with 2×25 μL of 0.1% TFA. The eluted peptides were analyzed by MALDI-TOF MS, using α-Cyano-4-hydroxycinnamic acid matrix (Sigma), with or without desalting with ZipTip C18 resin (Millipore). For calibration of MALDI-TOF-MS, at least two of the following standards, bovine insulin, E. coli thioredoxin and/or horse apomyoglobin were used. To quantitate peptide yields, the radioactivities were measured by liquid scintillation counting. For the click reaction, the translated and purified peptides were mixed with 0.1% (v/v) Triton X-100, and then dialyzed against H2O containing 0.1% (v/v) Triton X-100 using Slide-A-Lyzer MINI Dialysis Devices, 3.5K MWCO (Thermo Scientific) overnight to desalt. After dialysis, the peptides were divided into two portions: one was glycosylated via the click reaction, while the other was saved as a non-glycosylated peptide control. […] The glycosylated peptide (<4 pmol) was incubated with 100 nM 2G12 in selection buffer (40 μL) at room temp. The solution was then tumbled 30 min with 0.12 mg of equilibrated Dynabeads Protein G to capture 2G12-glycopeptide complex. Beads were then washed with 3×40 μL of selection buffer and resuspended in 10 μL of selection buffer. The resuspended beads were heated at 70° C. for 30 min to denature 2G12 and elute glycopeptides, chilled on ice for 5 min, and tumbled at room temperature for 10 min. The magnetically isolated supernatant was recovered and the beads were rinsed with 10 μL of selection buffer.
Then, the solution was added to 0.12 mg of pre-equilibrated Dynabeads Protein G and tumbled at room temperature for 30 min. The supernatant was removed and the beads were washed with 3×40 μL of selection buffer. The radioactivities of the supernatant and wash solutions were measured by liquid scintillation counting as unbound fractions. […] The beads were resuspended in 40 μL of selection buffer, heated at 70° C. for 30 min to elute the bound glycopeptides, chilled on ice for 5 min, and tumbled at room temperature for 10 min. The supernatant was removed, and the beads were washed with 40 μL of selection buffer and resuspended in 40 μL of selection buffer. The radioactivities of these solutions and suspensions were measured by liquid scintillation counting separately and the values were combined as apparent bound fractions. […] All experiments were done at least in triplicate. KDs were calculated as described in the footnote of Table 4 (below).

| SMILES | tolerance of Cys substitutions for 2G12 binding (in words) (Cys to Ser mutants, Table 6) | Fmax [%] (Table 4, maximal fraction bound from curve fit, error = standard error of fit) | Kd (Table 4, ribosomally translated radiolabeled glycopeptide with His6/FLAG tag, room temperature, fit Fbound=(Fmax[2G12])/(KD+[2G12]), error = standard error of fit) | Fmax [%] (Table 6 mutational analysis, radioactive bead binding assay) | Kd (Table 6 mutational analysis, radioactive bead binding assay, ribosomally translated) |
| --- | --- | --- | --- | --- | --- |
| CC[C@H](C)[C@H](NC(=O)[C@H](CCC(N)=O)NC(=O)[C@H](CCCCN)NC(=O)[C@H](CC(C)C)NC(=O)[C@H](Cc1c[nH]cn1)NC(=O)[C@H](CC(C)C)NC(=O)[C@@H](NC(=O)[C@H](CC(=O)O)NC(=O)[C@H](CCc1cn(C2CCC(OC3O[C@H](CO[C@H]4O[C@H](CO[C@H]5O[C@H](CO)[C@@H](O)[C@H](O)[C@@H]5O[C@H]5O[C@H](CO)[C@@H](O)[C@H](O)[C@@H]5O)[C@@H](O)[C@H](O[C@H]5O[C@H](CO)[C@@H](O)[C@H](O)[C@@H]5O[C@H]5O[C@H](CO)[C@@H](O)[C@H](O)[C@@H]5O)[C@@H]4O)[C@@H](O)[C@H](O[C@H]4O[C@H](CO)[C@@H](O)[C@H](O)[C@@H]4O[C@H]4O[C@H](CO)[C@@H](O)[C@H](O)[C@@H]4O[C@H]4O[C@H](CO)[C@@H](O)[C@H](O)[C@@H]4O)[C@@H]3O)CC2)nn1)NC=O)[C@@H](C)O)C(=O)NCC(=O)NCC(=O)N[C@@H](CCc1cn(C2CCC(OC3O[C@H](CO[C@H]4O[C@H](CO[C@H]5O[C@H](CO)[C@@H](O)[C@H](O)[C@@H]5O[C@H]5O[C@H](CO)[C@@H](O)[C@H](O)[C@@H]5O)[C@@H](O)[C@H](O[C@H]5O[C@H](CO)[C@@H](O)[C@H](O)[C@@H]5O[C@H]5O[C@H](CO)[C@@H](O)[C@H](O)[C@@H]5O)[C@@H]4O)[C@@H](O)[C@H](O[C@H]4O[C@H](CO)[C@@H](O)[C@H](O)[C@@H]4O[C@H]4O[C@H](CO)[C@@H](O)[C@H](O)[C@@H]4O[C@H]4O[C@H](CO)[C@@H](O)[C@H](O)[C@@H]4O)[C@@H]3O)CC2)nn1)C(=O)N1CCC[C@H]1C(=O)N[C@@H](CC(N)=O)C(=O)N[C@@H](CS)C(=O)N[C@H](C(=O)N[C@H](C(=O)N[C@@H](CCC(N)=O)C(=O)N[C@@H](CCC(N)=O)C(=O)N[C@@H](CC(=O)O)C(=O)N[C@H](C(=O)N[C@@H](CCCNC(=N)N)C(=O)N[C@@H](CCc1cn(C2CCC(OC3O[C@H](CO[C@H]4O[C@H](CO[C@H]5O[C@H](CO)[C@@H](O)[C@H](O)[C@@H]5O[C@H]5O[C@H](CO)[C@@H](O)[C@H](O)[C@@H]5O)[C@@H](O)[C@H](O[C@H]5O[C@H](CO)[C@@H](O)[C@H](O)[C@@H]5O[C@H]5O[C@H](CO)[C@@H](O)[C@H](O)[C@@H]5O)[C@@H]4O)[C@@H](O)[C@H](O[C@H]4O[C@H](CO)[C@@H](O)[C@H](O)[C@@H]4O[C@H]4O[C@H](CO)[C@@H](O)[C@H](O)[C@@H]4O[C@H]4O[C@H](CO)[C@@H](O)[C@H](O)[C@@H]4O)[C@@H]3O)CC2)nn1)C(=O)N[C@H](C(=O)N[C@@H](CO)C(=O)N[C@H](C(=O)N1CCC[C@H]1C(=O)N[C@@H](Cc1ccc(O)cc1)C(=O)N[C@H](C(=O)N[C@@H](Cc1ccc(O)cc1)C(=O)N[C@H](C(=O)N[C@@H](Cc1c[nH]c2ccccc12)C(=O)N1CCC[C@H]1C(=O)NCC(=O)N[C@@H](CO)C(=O)NCC(=O)N[C@@H](CO)C(=O)N[C@@H](CC(C)C)C(=O)NCC(=O)N[C@@H](Cc1c[nH]cn1)C(=O)N[C@@H](Cc1c[nH]cn1)C(=O)N[C@@H](Cc1c[nH]cn1)C(=O)N[C@@H](Cc1c[nH]cn1)C(=O)N[C@@H](Cc1c[nH]cn1)C(=O)N[C@@H](Cc1c[nH]cn1)C(=O)N[C@@H](CCCNC(=N)N)C(=O)N[C@@H](CC(=O)O)C(=O)N[C@@H](Cc1ccc(O)cc1)C(=O)N[C@@H](CCCCN)C(=O)N[C@@H](CC(=O)O)C(=O)N[C@@H](CC(=O)O)C(=O)N[C@@H](CC(=O)O)C(=O)N[C@@H](CC(=O)O)C(=O)N[C@@H](CCCCN)C(=O)O)[C@@H](C)O)[C@@H](C)O)[C@@H](C)CC)[C@@H](C)O)C(C)C)[C@@H](C)O)[C@@H](C)CC (some centres unmarked) [Clone 10F3, XDTLHLKQIGGXPNCITQQDVRXTSIPYTYTWP] | tolerated | 100 ± 2.7% | 3 ± 0.31 nM |  |  |
| CC[C@H](C)[C@H](NC(=O)[C@H](CCC(N)=O)NC(=O)[C@H](CCCCN)NC(=O)[C@H](CC(C)C)NC(=O)[C@H](Cc1c[nH]cn1)NC(=O)[C@H](CC(C)C)NC(=O)[C@@H](NC(=O)[C@H](CC(=O)O)NC(=O)[C@H](CCc1cn(C2CCC(OC3O[C@H](CO[C@H]4O[C@H](CO[C@H]5O[C@H](CO)[C@@H](O)[C@H](O)[C@@H]5O[C@H]5O[C@H](CO)[C@@H](O)[C@H](O)[C@@H]5O)[C@@H](O)[C@H](O[C@H]5O[C@H](CO)[C@@H](O)[C@H](O)[C@@H]5O[C@H]5O[C@H](CO)[C@@H](O)[C@H](O)[C@@H]5O)[C@@H]4O)[C@@H](O)[C@H](O[C@H]4O[C@H](CO)[C@@H](O)[C@H](O)[C@@H]4O[C@H]4O[C@H](CO)[C@@H](O)[C@H](O)[C@@H]4O[C@H]4O[C@H](CO)[C@@H](O)[C@H](O)[C@@H]4O)[C@@H]3O)CC2)nn1)NC=O)[C@@H](C)O)C(=O)NCC(=O)NCC(=O)N[C@@H](CCc1cn(C2CCC(OC3O[C@H](CO[C@H]4O[C@H](CO[C@H]5O[C@H](CO)[C@@H](O)[C@H](O)[C@@H]5O[C@H]5O[C@H](CO)[C@@H](O)[C@H](O)[C@@H]5O)[C@@H](O)[C@H](O[C@H]5O[C@H](CO)[C@@H](O)[C@H](O)[C@@H]5O[C@H]5O[C@H](CO)[C@@H](O)[C@H](O)[C@@H]5O)[C@@H]4O)[C@@H](O)[C@H](O[C@H]4O[C@H](CO)[C@@H](O)[C@H](O)[C@@H]4O[C@H]4O[C@H](CO)[C@@H](O)[C@H](O)[C@@H]4O[C@H]4O[C@H](CO)[C@@H](O)[C@H](O)[C@@H]4O)[C@@H]3O)CC2)nn1)C(=O)N1CCC[C@H]1C(=O)N[C@@H](CC(N)=O)C(=O)N[C@@H](CO)C(=O)N[C@H](C(=O)N[C@H](C(=O)N[C@@H](CCC(N)=O)C(=O)N[C@@H](CCC(N)=O)C(=O)N[C@@H](CC(=O)O)C(=O)N[C@H](C(=O)N[C@@H](CCCNC(=N)N)C(=O)N[C@@H](CCc1cn(C2CCC(OC3O[C@H](CO[C@H]4O[C@H](CO[C@H]5O[C@H](CO)[C@@H](O)[C@H](O)[C@@H]5O[C@H]5O[C@H](CO)[C@@H](O)[C@H](O)[C@@H]5O)[C@@H](O)[C@H](O[C@H]5O[C@H](CO)[C@@H](O)[C@H](O)[C@@H]5O[C@H]5O[C@H](CO)[C@@H](O)[C@H](O)[C@@H]5O)[C@@H]4O)[C@@H](O)[C@H](O[C@H]4O[C@H](CO)[C@@H](O)[C@H](O)[C@@H]4O[C@H]4O[C@H](CO)[C@@H](O)[C@H](O)[C@@H]4O[C@H]4O[C@H](CO)[C@@H](O)[C@H](O)[C@@H]4O)[C@@H]3O)CC2)nn1)C(=O)N[C@H](C(=O)N[C@@H](CO)C(=O)N[C@H](C(=O)N1CCC[C@H]1C(=O)N[C@@H](Cc1ccc(O)cc1)C(=O)N[C@H](C(=O)N[C@@H](Cc1ccc(O)cc1)C(=O)N[C@H](C(=O)N[C@@H](Cc1c[nH]c2ccccc12)C(=O)N1CCC[C@H]1C(=O)NCC(=O)N[C@@H](CO)C(=O)NCC(=O)N[C@@H](CO)C(=O)N[C@@H](CC(C)C)C(=O)NCC(=O)N[C@@H](Cc1c[nH]cn1)C(=O)N[C@@H](Cc1c[nH]cn1)C(=O)N[C@@H](Cc1c[nH]cn1)C(=O)N[C@@H](Cc1c[nH]cn1)C(=O)N[C@@H](Cc1c[nH]cn1)C(=O)N[C@@H](Cc1c[nH]cn1)C(=O)N[C@@H](CCCNC(=N)N)C(=O)N[C@@H](CC(=O)O)C(=O)N[C@@H](Cc1ccc(O)cc1)C(=O)N[C@@H](CCCCN)C(=O)N[C@@H](CC(=O)O)C(=O)N[C@@H](CC(=O)O)C(=O)N[C@@H](CC(=O)O)C(=O)N[C@@H](CC(=O)O)C(=O)N[C@@H](CCCCN)C(=O)O)[C@@H](C)O)[C@@H](C)O)[C@@H](C)CC)[C@@H](C)O)C(C)C)[C@@H](C)O)[C@@H](C)CC (some centres unmarked) [Clone 10F3-C15S] |  |  |  | 63% | 2.91 nM |
